Experimental data published in patent publication US7217423B2, “Revitalising active complex for the skin” (Coty B.V., priority 2001, dated 2007).

Legend:
[1] = test system: cell homogenate of epithelial cells; assay: oxygraphy: stimulation of oxygen consumption; format: cell-based; details: control = 100%
Text: Another synergy could be observed with regard to oxygraphy, i.e. the stimulation of the oxygen consumption of a cell homogenate of epithelial cells.

[2] = test system: dermal fibroblasts obtained from explanted normal human skin; assay: in-vitro anti-stress test under UV activity (LDH); format: cell-based; details: control group = 100%, mean of 5 tests
Description: In this test, a culture of dermal fibroblasts obtained from explanted normal human skin is subjected to UV-induced stress. The amounts of the enzyme lacticodes-hydrogenase (LDH) produced as a consequence of the aforesaid stress are proportional to the cell damage caused. The culture medium contained, for example, 3 wt. % of glycogen (Dermo-saccharides GY®), and a series of control tests without the aforesaid additive was carried out for comparative purposes.

With `CN(CC(=O)O)C(=N)N` [creatine, N-carbamidoyl-N-methylglycine] the oxygen consumption ([1]; 2 wt. % creatine added to control liquid (buffer)) was 119% and the “protection of cells after UV radiation” value ([2]; 2 wt. % creatine in culture liquid) was 110%.
For glycogen, the oxygen consumption ([1]; 3 wt. % glycogen added to control liquid (buffer)) was 135% and the “protection of cells still alive after UV radiation” value ([2]; 3 wt. % glycogen in culture medium, 4 days after UV radiation) was 128%.
